Data: PubChem BioAssay AID256 (DTP/NCI, 2004)
Several values for one entry are separate records, joined by “and”; a condition that tells them apart may be missing. Equal values may be shown once. Toxic doses and inconclusive results are not listed.

Test system: CD2F1 mice, L1210 leukemia ip, survival T/C
Assay: NCI In Vivo Anticancer Drug Screen. Data for tumor model L1210 Leukemia (intraperitoneal) in CD2F1 (CDF1) mice
Conditions: endpoint: mean survival time, higher = longer survival
How it was run: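 Activity against a transplanted murine tumor was judged by comparing the compound group with a vehicle group. The outcome in the treated animals was divided by that in the controls.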

Structure (SMILES): Nc1n[nH]c(N)n1
- T/C (dose: 3.2 mg/kg/injection, schedule: Q## X008 (iv), vehicle: water): 100 % of control
- T/C (dose: 6.3 mg/kg/injection, schedule: Q## X008 (iv), vehicle: water): 103 % of control
- T/C (dose: 12.5 mg/kg/injection, schedule: Q## X004 (iv), vehicle: water): 100 % of control
- T/C (dose: 12.5 mg/kg/injection, schedule: Q## X008 (iv), vehicle: water): 102 % of control
- T/C (dose: 25.0 mg/kg/injection, schedule: Q## X004 (iv), vehicle: water): 104 % of control
- T/C (dose: 25.0 mg/kg/injection, schedule: Q## X008 (iv), vehicle: water): 101 % of control
- T/C (dose: 50.0 mg/kg/injection, schedule: Q03HX024 (ip), vehicle: saline): 103 % of control
- T/C (dose: 50.0 mg/kg/injection, schedule: Q## X004 (iv), vehicle: water): 103 % of control
- T/C (dose: 50.0 mg/kg/injection, schedule: Q## X008 (iv), vehicle: water): 103 % of control
- T/C (dose: 50.0 mg/kg/injection, schedule: Q## X068 (ip), vehicle: water): 110 % of control
- T/C (dose: 50.0 mg/kg/injection, schedule: Q#A X002 (iv), vehicle: water): 106 % of control
- T/C (dose: 100.0 mg/kg/injection, schedule: Q01DX007 (ip), vehicle: saline): 113 % of control
- T/C (dose: 100.0 mg/kg/injection, schedule: Q01DX009 (ip), vehicle: saline): 104 % of control
- T/C (dose: 100.0 mg/kg/injection, schedule: Q03DX003 (ip), vehicle: saline): 105 % of control
- T/C (dose: 100.0 mg/kg/injection, schedule: Q03HX024 (ip), vehicle: saline): 117 % of control and 103 % of control and 112 % of control
- T/C (dose: 100.0 mg/kg/injection, schedule: Q04DX003 (ip), vehicle: saline): 105 % of control
- T/C (dose: 100.0 mg/kg/injection, schedule: Q## X004 (iv), vehicle: water): 105 % of control
- T/C (dose: 100.0 mg/kg/injection, schedule: Q## X008 (iv), vehicle: water): 102 % of control
- T/C (dose: 100.0 mg/kg/injection, schedule: Q#A X002 (iv), vehicle: water): 96 % of control
- T/C (dose: 100.0 mg/kg/injection, schedule: Q#A X034 (ip), vehicle: water): 118 % of control
- T/C (dose: 200.0 mg/kg/injection, schedule: Q01DX017 (ip), vehicle: water): 113 % of control
- T/C (dose: 200.0 mg/kg/injection, schedule: Q03DX003 (ip), vehicle: saline): 105 % of control
- T/C (dose: 200.0 mg/kg/injection, schedule: Q04DX003 (ip), vehicle: saline): 106 % of control
- T/C (dose: 200.0 mg/kg/injection, schedule: Q## X004 (iv), vehicle: water): 105 % of control
- T/C (dose: 200.0 mg/kg/injection, schedule: Q## X068 (ip), vehicle: water): 190 % of control
- T/C (dose: 200.0 mg/kg/injection, schedule: Q#A X002 (iv), vehicle: water): 103 % of control
- T/C (dose: 200.0 mg/kg/injection, schedule: Q#A X010 (ip), vehicle: water): 106 % of control
- T/C (dose: 400.0 mg/kg/injection, schedule: Q01DX001 (iv), vehicle: water): 104 % of control
- T/C (dose: 400.0 mg/kg/injection, schedule: Q03DX003 (ip), vehicle: saline): 113 % of control
- T/C (dose: 400.0 mg/kg/injection, schedule: Q03HX024 (ip), vehicle: saline): 203 % of control and 221 % of control and 237 % of control
- T/C (dose: 400.0 mg/kg/injection, schedule: Q04DX003 (ip), vehicle: saline): 106 % of control
- T/C (dose: 400.0 mg/kg/injection, schedule: Q## X068 (ip), vehicle: water): 116 % of control
- T/C (dose: 400.0 mg/kg/injection, schedule: Q#A X002 (iv), vehicle: water): 110 % of control
- T/C (dose: 400.0 mg/kg/injection, schedule: Q#A X010 (ip), vehicle: water): 113 % of control
- T/C (dose: 400.0 mg/kg/injection, schedule: Q#A X018 (ip), vehicle: water): 203 % of control
- T/C (dose: 400.0 mg/kg/injection, schedule: Q#A X034 (ip), vehicle: water): 208 % of control
- T/C (dose: 512.0 mg/kg/injection, schedule: Q12HX018 (ip), vehicle: saline): 104 % of control
- T/C (dose: 800.0 mg/kg/injection, schedule: Q01DX001 (iv), vehicle: water): 103 % of control
- T/C (dose: 800.0 mg/kg/injection, schedule: Q01DX017 (ip), vehicle: water): 150 % of control
- T/C (dose: 800.0 mg/kg/injection, schedule: Q#A X002 (iv), vehicle: water): 110 % of control
- T/C (dose: 800.0 mg/kg/injection, schedule: Q#A X010 (ip), vehicle: water): 122 % of control
- T/C (dose: 800.0 mg/kg/injection, schedule: Q#A X018 (ip), vehicle: water): 181 % of control
- T/C (dose: 800.0 mg/kg/injection, schedule: Q#A X034 (ip), vehicle: water): 97 % of control
- T/C (dose: 1024.0 mg/kg/injection, schedule: Q12HX018 (ip), vehicle: saline): 120 % of control
- T/C (dose: 1600.0 mg/kg/injection, schedule: Q01DX001 (iv), vehicle: water): 105 % of control
- T/C (dose: 1600.0 mg/kg/injection, schedule: Q01DX017 (ip), vehicle: water): 165 % of control
